Measured values published in US9512117B2 (priority 2010, dated 2016).

Tests used:
[1] = logP by HPLC on reversed-phase columns (C 18), EEC directive 79/831 Annex V.A8; type: physicochemical; settings: LC-MS; for Log P [a]: acidic range, pH 2.7, 0.1% aqueous formic acid and acetonitrile; for Log P [b]: neutral range, pH 7.8, 0.001 molar aqueous ammonium hydrogencarbonate and acetonitrile
Protocol: The logP values were measured according to EEC directive 79/831 Annex V.A8 by HPLC (High Performance Liquid Chromatography) on reversed-phase columns (C 18), using the methods below:
^[a] The LC-MS determination in the acidic range is effected at pH 2.7 with 0.1% aqueous formic acid and acetonitrile (contains 0.1% formic acid) as eluents; linear gradient from 10% acetonitrile to 95% acetonitrile.
^[b] The LC-MS determination in the neutral range is effected at pH 7.8 using 0.001 molar aqueous ammonium hydrogencarbonate solution and acetonitrile as eluents; linear gradient from 10% acetonitrile to 95% acetonitrile.
The calibration is effected with unbranched alkan-2-ones (having 3 to 16 carbon atoms) with known logP values (logP values determined on the basis of the retention times by linear interpolation between two successive alkanones).

Phytophthora infestans = type: in vivo; settings: young tomato plants, protective spray, 100 ppm active ingredient, evaluation 7 days after inoculation; 0% = control, 100% = no infection
Plasmopara viticola = experiment: Plasmopara test (grapevine) / protective; type: in vivo; settings: young grapevine plants, protective spray, 10 ppm active ingredient, evaluation 6 days after inoculation; 0% = control, 100% = no infection
Protocol: Plasmopara Test (Grapevine)/Protective
• Solvent: 24.5 parts by weight of acetone • 24.5 parts by weight of dimethylacetamide • Emulsifier: 1 part by weight of alkylaryl polyglycol ether
To produce a suitable active ingredient formulation, 1 part by weight of active ingredient is mixed with the stated amounts of solvent and emulsifier, and the concentrate is diluted with water to the desired concentration.
To test for protective efficacy, young plants are sprayed with the active ingredient formulation at the stated application rate. After the spray coating has dried on, the plants are inoculated with an aqueous spore suspension of Plasmopara viticola and then remain in an incubation cabin at approx. 20° C. and 100% relative air humidity for 1 day. Subsequently, the plants are placed in a greenhouse at approx. 21° C. and approx. 90% air humidity for 4 days. The plants are then moistened and placed in an incubation cabin for 1 day.
Evaluation follows 6 days after the inoculation. 0% means an efficacy which corresponds to that of the control, whereas an efficacy of 100% means that no infection is observed.
In this test, the following inventive compounds show, at an active ingredient concentration of 10 ppm, an efficacy of 70% or more: […]

Row | Compound | Log P [a] [1] | Log P [b] [1] | Eff. % (Phytophthora infestans) [%] | Eff. % (Plasmopara viticola) [%]
1 | C=CCOc1cc(C)ccc1C1CC(c2csc(C3CCN(C(=O)Cn4nc(C(F)F)cc4C)CC3)n2)=NO1 (stereo not shown) [Ex. 22] | 3.62[a]; | 3.66[b]; |  | 
2 | C#CCOc1cc(C)ccc1C1CC(c2csc(C3CCN(C(=O)Cn4nc(C(F)(F)F)cc4C)CC3)n2)=NO1 (stereo not shown) [Ex. 26] | 3.67[a]; | 3.61[b] | 100 | 
3 | CC[S+]([O-])Cc1ccccc1C1CC(c2csc(C3CCN(C(=O)Cn4nc(C(F)(F)F)cc4C)CC3)n2)=NO1 (mixture of isomers) [Ex. 36] | 2.53[a] |  | 100 | 
4 | O=C(Cn1nc(C(F)(F)F)cc1C(F)(F)F)N1CCC(c2nc(C3=NOC(c4ccccc4OCC4CC4)C3)cs2)CC1 (stereo not shown) [Ex. 16] | 4.59[a] |  |  | 96
5 | Cc1cc(C(F)(F)F)nn1CC(=O)N1CCC(c2nc(C3=NOC(c4ccccc4NS(C)(=O)=O)C3)cs2)CC1 (stereo not shown) [Ex. 5, N-(2-{3-[2-(1-{[5-Methyl-3-(trifluoromethyl)-1H-pyrazol-1-yl]acetyl}piperidin-4-yl)-1,3-thiazol-4-yl]-4,5-dihydro-1,2-oxazol-5-yl}phenyl)methanesulphonamide] |  |  | 95 | 84
6 | O=C(Oc1ccccc1C1CC(c2csc(C3CCN(C(=O)Cn4nc(C(F)(F)F)cc4C(F)(F)F)CC3)n2)=NO1)C1CC1 (stereo not shown) [Ex. 14] | 4.04[a] |  |  | 
7 | Cc1cc(C(F)(F)F)nn1CC(=O)N1CCC(c2nc(C3=NOC(c4ccccc4C[S+](C)[O-])C3)cs2)CC1 (mixture of isomers) [Ex. 35] | 2.34[a] |  | 100 | 
8 | C#CCOc1cccc(F)c1C1CC(c2csc(C3CCN(C(=O)Cn4nc(C(F)F)cc4C)CC3)n2)=NO1 (stereo not shown) [Ex. 31] | 2.92[a] |  |  | 
9 | Cc1cc(C(F)(F)F)nn1CC(=O)N1CCC(c2nc(C3=NOC(c4ccccc4OCC4CC4)C3)cs2)CC1 (stereo not shown) [Ex. 17] | 4.03[a] |  |  | 92
10 | Cc1cc(C(F)F)nn1CC(=O)N1CCC(c2nc(C3=NOC(c4c(F)cccc4OCC4CC4)C3)cs2)CC1 (stereo not shown) [Ex. 28] | 3.44[a] |  |  | 
11 | C#CCOc1cccc(C2CC(c3csc(C4CCN(C(=O)Cn5nc(C(F)(F)F)cc5C)CC4)n3)=NO2)c1 (stereo not shown) [Ex. 10] | 3.49[a]; | 3.3[b] |  | 
12 | C#CCOc1cc(Cl)ccc1C1CC(c2csc(C3CCN(C(=O)Cn4nc(C(F)F)cc4C)CC3)n2)=NO1 (stereo not shown) [Ex. 20] | 3.37[a]; | 3.36[b] |  | 
13 | C#CCOc1cc(Cl)cc(Cl)c1C1CC(c2csc(C3CCN(C(=O)Cn4nc(C(F)F)cc4C)CC3)n2)=NO1 (stereo not shown) [Ex. 21] | 3.66[a]; | 3.57[b] |  | 
14 | C#CCOc1ccc(F)c(C2CC(c3csc(C4CCN(C(=O)Cn5nc(C(F)(F)F)cc5C)CC4)n3)=NO2)c1F (stereo not shown) [Ex. 8] |  |  | 100 | 100
15 | COCCOCc1ccccc1C1CC(c2csc(C3CCN(C(=O)Cn4nc(C(F)(F)F)cc4C)CC3)n2)=NO1 (racemic) [Ex. 44] | 3.28[a] |  | 94 | 
16 | C#CCOc1cc(C)ccc1C1CC(c2csc(C3CCN(C(=O)Cn4nc(C(F)F)cc4C)CC3)n2)=NO1 (stereo not shown) [Ex. 23] | 3.23[a]; | 3.23[b]; |  | 
17 | COc1ccc(C2CC(c3csc(C4CCN(C(=O)Cn5nc(C(F)F)cc5C)CC4)n3)=NO2)c(OCC2CC2)c1 (stereo not shown) [Ex. 27] | 3.5[a] |  |  | 
18 | C=CCOc1cc(Cl)cc(Cl)c1C1CC(c2csc(C3CCN(C(=O)Cn4nc(C(F)F)cc4C)CC3)n2)=NO1 (stereo not shown) [Ex. 24] | 3.95[a]; | 3.97[b]; |  | 
19 | CC#CCOc1cc(OC)ccc1C1CC(c2csc(C3CCN(C(=O)Cn4nc(C(F)F)cc4C)CC3)n2)=NO1 (stereo not shown) [Ex. 15] | 3.28[a] |  |  | 
